The values below are quoted from earlier work in patent US10925890B2, “Use of dextran sulfate” (TX MEDIC AB, priority 2014, dated 2021).

In this data set the test system is angiogenesis. The conditions noted are these: cited from earlier work.

For dextran sulfate, for the setting “U.S. Pat. No. 5,135,920”, the Effect on angiogenesis result is “angiostatic”.

Turning to heparin, the “Effect on angiogenesis in vivo” value (Glycobiology 3, 567-573 (1993), Pathophysiology of Haemostasis and Thrombosis 23, 141-149 (1993)) was “inhibited angiogenesis”.
